Assays:
caspase-9 = experiment: Caspase-9 activity, colorimetric substrate Ac-LEHD-pNA; format: cell-based, human; details: Hep G2, 48 h, control 0.26
Description: (§1) The cell line was grown in RPMI-1640 medium supplemented with L-glutamine 2 mM, HEPESNa 25 mM, penicillin 100 U/mL, streptomycin 100 μg/mL and 10% […] (FBS) at 37 °C in a humidified atmosphere containing 5% CO2. Hep G2 cells were seeded at 1 × 10^6 cells/mL and sub cultured every 2–3 days after 60–80% confluence was reached. To prepare the lysates cells attached to the culture plate were scraped off with a cell scraper and collected in a 1.5 mL tube by centrifugation. The cell pellets were rinsed with PBS, suspended in sterile water, and then lysed by sonication. For each experiment, the cells were treated separately with increasing concentrations of silibinin derivatives (0, 25, 50, 75, 100, 125, 150, 175 and 200 μM) and incubated for 48 h.
The activities of caspase-3 and 9 were measured using colorimetric substrates. Cells were added to a lysis buffer (100 mM HEPES [pH 7.5], 0.1% CHAPS, 1 mM PMSF, 10 mM MDTT, 1 mM EDTA) and placed on ice for 30 min. After the cells were centrifuged at 10,000 × g for 10 min at 4 °C, 50 μg of protein from the supernatants was added to each of the caspase substrates. The colorimetric substrates for caspase-3 and 9 were Ac-DEVD-pNA (Asp-Glu-Val-Asp-pNA) and Ac-LEHD-pNA (N-acetyl-Leu-Glu-His-Asp-pNA), respectively. After a 2 h incubation, to measure p-nitroanilide absorbance was determined at 405 nm ([34]).

[1] = molecular target: T1, glucosyl ceramide synthase (GCS) (Homo sapiens, UniProt Q16739); experiment: GCS activity assay (C6-NBD-ceramide, HPLC); format: cell-based; details: for GCS activity, effect of treatment: Hep G2, 0-200 µM
T1 construct: endogenous in cells; host or cells: Hep G2
T1 sequence (Q16739 1-394): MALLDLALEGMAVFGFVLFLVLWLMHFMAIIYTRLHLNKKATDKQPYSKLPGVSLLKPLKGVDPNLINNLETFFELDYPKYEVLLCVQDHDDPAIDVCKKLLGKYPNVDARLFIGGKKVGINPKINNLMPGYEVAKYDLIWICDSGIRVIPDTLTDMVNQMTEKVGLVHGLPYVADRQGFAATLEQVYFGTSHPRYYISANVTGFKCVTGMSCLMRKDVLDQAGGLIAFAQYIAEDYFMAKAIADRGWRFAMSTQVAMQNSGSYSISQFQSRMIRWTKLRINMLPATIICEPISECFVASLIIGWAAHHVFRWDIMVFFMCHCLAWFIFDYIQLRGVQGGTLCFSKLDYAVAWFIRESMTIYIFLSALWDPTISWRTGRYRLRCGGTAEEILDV
Description: as §1
To determine GCS activities, the fluorescent acceptor substrate C6-4-nitrobenzo-2-oxa-1,3-diazole (NBD)-ceramide and a normal-phase HPLC were used. Acceptor substrate, 50 pM of C6-NBD-Cer and 6.5 nM of lecithin were mixed in 100 µL of ethanol and then the solvent was evaporated. Next, 10 µL of water was added and the mixture was sonicated to form liposomes. For the GCS assay, 50 µL of reaction mixture contains 500 µM UDP-Glc, 1mM EDTA, 10 µL of C6-NBD-Cer liposome and 20 µL of an appropriate amount of enzyme in lysis buffer. Addition of conduritol B epoxide (CBE) at 2.5 mM is effective at inhibiting the glycosidase activity. Standard assays were carried out at 37 °C for 1 h. The reaction was stopped by adding 200 µL of chloroform/methanol (2:1, v/v). After a few seconds of vortexing, 5 µL of 500 µM KCl was added and then centrifuged. After the organic phase had dried up, lipids were dissolved in 200 µL of isopropyl alcohol/n-hexane/H2O (55:44:1) and then transferred to a glass vial in auto sampler. A 100 µL aliquot of sample was automatically loaded onto a normal-phase column (Intersil SIL 150A-5, 4.6 x 250 mm, GL Sciences, Japan) and eluted with isopropyl alcohol/n-hexane/H2O (55:44:1) at a flow rate of 2.0 mL/min. Fluorescence was determined using a fluorescent detector (Hitachi L-7480) set to excitation and emission wavelengths of 470 and 530 nm, respectively. The fluorescent peaks were identified by comparing their retention times with those of standards ([37]).

GCS activity, effect of treatment [1] | GCS activity (% of control) ([1]; Hep G2, 200 µM) | SMILES | Caspase-9 (ΔOD 405nm) (caspase-9; 25 micro molar) | Caspase-9 (ΔOD 405nm) (caspase-9; 50 micro molar) | Caspase-9 (ΔOD 405nm) (caspase-9; 75 micro molar) | Caspase-9 (ΔOD 405nm) (caspase-9; 100 micro molar) | Caspase-9 (ΔOD 405nm) (caspase-9; 125 micro molar) | Caspase-9 (ΔOD 405nm) (caspase-9; 150 micro molar) | Caspase-9 (ΔOD 405nm) (caspase-9; 175 micro molar) | Caspase-9 (ΔOD 405nm) (caspase-9; 200 micro molar)
dose dependent inhibition | 18 % of control | COc1cc([C@@H]2Oc3cc([C@H]4Oc5cc(O)cc(O)c5C(=O)[C@@H]4OC(=O)c4cc(O)c(O)c(O)c4)ccc3O[C@H]2CO)ccc1O [SGB, 3-O-galloyl silybin B] | 0.30 ± 0.048 ΔOD 405nm | 0.41 ± 0.053 ΔOD 405nm | 0.46 ± 0.046 ΔOD 405nm | 0.53 ± 0.077 ΔOD 405nm | 0.70 ± 0.093 ΔOD 405nm | 0.89 ± 0.108 ΔOD 405nm | 1.18 ± 0.192 ΔOD 405nm | 1.34 ± 0.207 ΔOD 405nm
dose dependent inhibition |  | COc1cc([C@@H]2Oc3cc([C@H]4Oc5cc(O)cc(O)c5C(=O)[C@@H]4O)ccc3O[C@H]2CO)ccc1O [SB, silybin B] | 0.30 ± 0.048 ΔOD 405nm | 0.41 ± 0.055 ΔOD 405nm | 0.47 ± 0.070 ΔOD 405nm | 0.56 ± 0.067 ΔOD 405nm | 0.60 ± 0.083 ΔOD 405nm | 0.67 ± 0.105 ΔOD 405nm | 0.81 ± 0.126 ΔOD 405nm | 0.89 ± 0.114 ΔOD 405nm
did not indicate any significant changes |  | COc1cc([C@H]2Oc3cc([C@H]4Oc5cc(O)cc(O)c5C(=O)[C@@H]4OC(=O)c4cc(O)c(O)c(O)c4)ccc3O[C@@H]2CO)ccc1O [SGA, 3-O-galloyl silybin A] | 0.23 ± 0.029 ΔOD 405nm | 0.40 ± 0.053 ΔOD 405nm | 0.55 ± 0.070 ΔOD 405nm | 0.86 ± 0.136 ΔOD 405nm | 0.69 ± 0.103 ΔOD 405nm | 0.80 ± 0.124 ΔOD 405nm | 1.19 ± 0.147 ΔOD 405nm | 1.30 ± 0.167 ΔOD 405nm
dose dependent inhibition |  | COc1cc([C@H]2Oc3cc([C@H]4Oc5cc(O)cc(O)c5C(=O)[C@@H]4O)ccc3O[C@@H]2CO)ccc1O [SA, silybin A] | 0.41 ± 0.060 ΔOD 405nm | 0.50 ± 0.089 ΔOD 405nm | 0.61 ± 0.102 ΔOD 405nm | 0.73 ± 0.110 ΔOD 405nm | 0.84 ± 0.133 ΔOD 405nm | 0.96 ± 0.143 ΔOD 405nm | 1.10 ± 0.164 ΔOD 405nm | 1.16 ± 0.147 ΔOD 405nm

Source: PMC5149029, “New Aspects of Silibinin Stereoisomers and their 3-O-galloyl Derivatives on Cytotoxicity and Ceramide Metabolism in Hep G2 hepatocarcinoma Cell Line” (Iranian Journal of Pharmaceutical Research : IJPR, 2016)
